Test systems include COLO 205 colon; HT29 colon; K-562 leukemia; OVCAR-5 ovarian; RPMI-8226 leukemia; SF-268 CNS; SN12C renal; SNB-19 CNS; TK-10 renal; UACC-62 melanoma.
What all share (assay): growth of human tumour cells (NCI), 48 h

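Each compound was tested at five concentrations against cells in 96-well plates for 48 hours. At the GI50, growth is halved. Definition used: TGI = concentration required for complete inhibition of growth.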

Take `COc1cccc(NC(=O)c2sc3nc4c(cc3c2N)C(O)CCC4)c1` (configuration not stated): the GI50 in the experiment on COLO 205 colon is 0.226 µM; with HT29 colon, 0.133 µM; in the experiment on K-562 leukemia, 0.0406 µM; in the experiment with OVCAR-5 ovarian it was 0.521 µM; with RPMI-8226 leukemia, 0.333 µM; in the experiment on SF-268 CNS, 0.496 µM. The GI50 with SN12C renal was 0.562 µM; in the experiment on SNB-19 CNS, 2.12 µM; in the experiment on TK-10 renal, 46.8 µM; in the experiment with UACC-62 melanoma, 0.15 µM. The TGI is 0.87 µM with COLO 205 colon; over 100 µM in the experiment with HT29 colon; over 100 µM in the experiment with K-562 leukemia; over 100 µM in the experiment with OVCAR-5 ovarian; over 100 µM in the experiment on RPMI-8226 leukemia; over 55 µM in the experiment with SF-268 CNS. Further, the TGI is over 100 µM in the experiment with SN12C renal, over 93.2 µM in the experiment on SNB-19 CNS, over 100 µM with TK-10 renal and over 100 µM in the experiment on UACC-62 melanoma.

Turning to `CCCCCCCCCCOC(=O)c1cc[n+](C)cc1`, the TGI in the experiment on COLO 205 colon amounted to 30.3 µM; with HT29 colon, 31.1 µM; in the experiment on K-562 leukemia it was 34.2 µM; with OVCAR-5 ovarian it was 26.8 µM; in the experiment with RPMI-8226 leukemia, 38.2 µM; in the experiment with SF-268 CNS, 35.3 µM. Besides, the TGI amounted to 30.7 µM in the experiment on SN12C renal, 30.4 µM with SNB-19 CNS, 31.8 µM with TK-10 renal and 34 µM with UACC-62 melanoma.

With `Nc1ccccc1C(=O)NC(=O)Nc1ccc(Oc2ncc(Br)cn2)c(Cl)c1`, the TGI in the experiment on COLO 205 colon came out at 0.421 µM; in the experiment on HT29 colon it was 0.448 µM; in the experiment on K-562 leukemia, 18 µM; in the experiment with OVCAR-5 ovarian, 51.7 µM; with RPMI-8226 leukemia, 29.6 µM; in the experiment with SF-268 CNS it was 18.9 µM. Further, the TGI with SN12C renal amounted to 17.4 µM; in the experiment on SNB-19 CNS it was 14.7 µM; in the experiment with TK-10 renal, 13.8 µM; in the experiment on UACC-62 melanoma it was 4.33 µM. In addition, the values for the GI50 in the experiment on K-562 leukemia and with UACC-62 melanoma were 0.00659 µM and 0.00797 µM, respectively.

In the case of `NC(=S)N/N=C1/CN(c2ccc(Cl)c(Cl)c2)CC(=O)C1c1nc2ccccc2s1` (configuration not stated), the TGI with COLO 205 colon, in the experiment with HT29 colon, in the experiment with K-562 leukemia, in the experiment with OVCAR-5 ovarian, with RPMI-8226 leukemia and in the experiment with SF-268 CNS was over 100 µM in each case. The TGI in the experiment on SN12C renal, in the experiment with SNB-19 CNS, in the experiment on TK-10 renal and in the experiment on UACC-62 melanoma was over 100 µM in each case.

Consider `COc1ccc2c(c1)CCc1c(CO)c(COC(=O)NC(C)C)n(C)c1-2`, for which the TGI with COLO 205 colon was 4.68 µM; in the experiment on HT29 colon, 13.5 µM; with K-562 leukemia, 10.5 µM; with OVCAR-5 ovarian it was over 100 µM; with RPMI-8226 leukemia, 7.05 µM; with SF-268 CNS, 63.8 µM. For the same compound, the TGI with SN12C renal was 45.8 µM; with SNB-19 CNS, 56.1 µM; with TK-10 renal, over 100 µM; with UACC-62 melanoma it was 22.7 µM.

With `CC/C(Cc1ccccc1)=C(/c1ccc(O)cc1)c1ccc(OCCN2CCCC2)cc1`, the GI50 in the experiment on COLO 205 colon was 1.76 µM; with HT29 colon, 1.72 µM; with K-562 leukemia, 1.2 µM; with OVCAR-5 ovarian it was 1.86 µM; in the experiment with RPMI-8226 leukemia, 2.1 µM; in the experiment with SF-268 CNS, 1.61 µM. Also, the GI50 in the experiment on SN12C renal was 1.88 µM; in the experiment with SNB-19 CNS it was 1.97 µM; in the experiment with TK-10 renal it was 1.75 µM; in the experiment on UACC-62 melanoma, 2.03 µM. The TGI with COLO 205 colon is 3.39 µM; in the experiment on HT29 colon, 3.78 µM; in the experiment on K-562 leukemia it was 3.41 µM; in the experiment on OVCAR-5 ovarian it was 3.93 µM; with RPMI-8226 leukemia, 4.67 µM; in the experiment on SF-268 CNS it was 3.35 µM. Further, the TGI with SN12C renal was 3.88 µM; with SNB-19 CNS, 3.93 µM; in the experiment on TK-10 renal, 3.34 µM; with UACC-62 melanoma, 4.12 µM.

With `O=C(Nc1ccc2c(c1)OCCO2)C(=O)c1c[nH]c2ccccc12`, the GI50 is 2.72 µM with COLO 205 colon; 0.81 µM in the experiment on HT29 colon; 0.369 µM in the experiment with K-562 leukemia; 3.47 µM in the experiment with OVCAR-5 ovarian; 2.34 µM in the experiment with RPMI-8226 leukemia; 1.98 µM in the experiment on SF-268 CNS. In addition, the GI50 is 2.31 µM in the experiment with SN12C renal, 2.88 µM in the experiment with SNB-19 CNS, 6.75 µM in the experiment on TK-10 renal and 1.43 µM in the experiment on UACC-62 melanoma. For the same compound, the TGI with COLO 205 colon is over 100 µM; in the experiment on HT29 colon, 3.78 µM; with K-562 leukemia, over 100 µM; in the experiment with OVCAR-5 ovarian it was over 100 µM; in the experiment on RPMI-8226 leukemia, over 100 µM; with SF-268 CNS, 37.5 µM. Further, the TGI with SN12C renal was over 83 µM; with SNB-19 CNS, 79.7 µM; in the experiment on TK-10 renal it was 31.4 µM; in the experiment with UACC-62 melanoma it was over 100 µM.

Take `Nc1ccc(-c2ccc3ncc4ccc(=O)n(-c5cccc(C(F)(F)F)c5)c4c3c2)cn1`: the GI50 with COLO 205 colon was 0.0245 µM; in the experiment with HT29 colon, 0.115 µM; in the experiment on K-562 leukemia, under 0.014 µM; in the experiment on OVCAR-5 ovarian it was under 0.0145 µM; with RPMI-8226 leukemia, under 0.01 µM; in the experiment with SF-268 CNS, under 0.0104 µM. The GI50 in the experiment with SN12C renal is under 0.0131 µM; in the experiment with SNB-19 CNS, under 0.013 µM; with TK-10 renal it was under 0.016 µM; in the experiment on UACC-62 melanoma, under 0.01 µM. The TGI with COLO 205 colon was 0.683 µM; with HT29 colon it was 12 µM; with K-562 leukemia, over 43.2 µM; with OVCAR-5 ovarian it was 31.5 µM; in the experiment with RPMI-8226 leukemia it was 0.241 µM; with SF-268 CNS it was 4.61 µM. Also, the TGI in the experiment on SN12C renal is over 52.2 µM; in the experiment with SNB-19 CNS, 52.3 µM; with TK-10 renal, 0.275 µM; with UACC-62 melanoma, 0.026 µM.

For the compound `COc1cc(C2c3cc4c(cc3[C@@H](N(C)c3ccc(N(C)C)cc3)C3COC(=O)C23)OCO4)cc(OC)c1O` (some centres not stated), the TGI with COLO 205 colon was 4.23 µM; in the experiment with HT29 colon, 2.62 µM; in the experiment on K-562 leukemia it was 30.6 µM; with OVCAR-5 ovarian, 31.3 µM; with RPMI-8226 leukemia, over 100 µM; in the experiment with SF-268 CNS it was 6.85 µM. The TGI in the experiment on SN12C renal came out at 18.1 µM; in the experiment on SNB-19 CNS it was 42.6 µM; with TK-10 renal, 33.1 µM; in the experiment with UACC-62 melanoma, 23.1 µM.

Take `C=C(CN1c2ccccc2Sc2ccccc21)c1ccc(C(=O)Nc2ccccc2N)cc1`: the GI50 in the experiment on COLO 205 colon was 34.7 µM; with HT29 colon, 11.5 µM; in the experiment on K-562 leukemia, 2.47 µM; with OVCAR-5 ovarian it was over 100 µM; in the experiment on RPMI-8226 leukemia, 0.597 µM; with SF-268 CNS, 25.7 µM. Moreover, the GI50 in the experiment on SN12C renal is 8.07 µM; in the experiment on SNB-19 CNS it was over 54.3 µM; in the experiment on TK-10 renal, 23.9 µM; in the experiment on UACC-62 melanoma, 93 µM. For the same compound, the TGI with COLO 205 colon is over 100 µM; in the experiment with HT29 colon, over 100 µM; in the experiment on K-562 leukemia it was over 100 µM; in the experiment on OVCAR-5 ovarian, over 100 µM; in the experiment on RPMI-8226 leukemia, over 25.4 µM; in the experiment on SF-268 CNS, over 100 µM. Further, the TGI with SN12C renal, in the experiment on SNB-19 CNS, in the experiment with TK-10 renal and with UACC-62 melanoma was over 100 µM throughout.

Consider `O/N=C\C(=Nc1ccc(Cc2ccc(N=C(/C=N\O)NO)cc2)cc1)NO`, for which the TGI with COLO 205 colon, in the experiment on HT29 colon, in the experiment on K-562 leukemia, in the experiment on OVCAR-5 ovarian, with RPMI-8226 leukemia and with SF-268 CNS was over 100 µM throughout. Further, the TGI in the experiment with SN12C renal, in the experiment with SNB-19 CNS, with TK-10 renal and in the experiment with UACC-62 melanoma was over 100 µM in each case.

As to `C=C(CO)CC(/C=C(\C)CC/C=C(\C)CCl)OC(C)=O` (configuration not stated), the TGI with COLO 205 colon, in the experiment with HT29 colon, in the experiment with K-562 leukemia, in the experiment with OVCAR-5 ovarian, with RPMI-8226 leukemia and with SF-268 CNS was over 100 µM in each case. In addition, the TGI with SN12C renal, in the experiment on SNB-19 CNS, in the experiment on TK-10 renal and with UACC-62 melanoma was over 100 µM each time.

Values taken from PubChem BioAssay (NCI).
